Measurements reported in US9149038B2, “4-amino-6-(heterocyclic)picolinates and 6-amino-2-(heterocyclic)pyrimidine-4-carboxylates and their use as herbicides” (Dow AgroSciences LLC, priority 2013, dated 2015).
Read-outs that look alike come from different tables or passages of the source.

Test system: Direct Seeded Rice and weed species
Test: Postemergence herbicidal activity in direct seeded rice, visual rating after 20-22 days and probit GR20/GR50/GR80/GR90 (Table 14)
Type: in vivo
Conditions: for pest or weed control at 17.5 g/ha / pest or weed control at 35 g/ha / pest or weed control at 70 g/ha: post-emergence, 504 h, postemergence; for pest or weed control at 17.5 g/ha: 17.5 g ai/ha; for pest or weed control at 35 g/ha: 35 g ai/ha; for pest or weed control at 70 g/ha: 70 g ai/ha
Text: Herbicidal evaluations were made visually on a scale of 0 to 100 where 0 represents no activity and 100 represents complete plant death. Seeds or nutlets of the desired test plant species were planted in a soil matrix prepared by mixing a loam soil (43 percent silt, 19 percent clay, and 38 percent sand, with a pH of about 8.1 and an organic matter content of about 1.5 percent) and river sand in an 80 to 20 ratio. The soil matrix was contained in plastic pots with a surface area of 139.7 cm^2. When required to ensure good germination and healthy plants, a fungicide treatment and/or other chemical or physical treatment was applied. The plants were grown for 10-17 d in a greenhouse with an approximate 14-h photoperiod which was maintained at about 29° C. during the day and 26° C. during the night. Nutrients and water were added on a regular basis and supplemental lighting was provided with overhead metal halide 1000-Watt lamps as necessary. The plants were employed for testing when they reached the second or third true leaf stage. A weighed amount, determined by the highest rate to be tested, of each test compound was placed in 25 mL glass vials and dissolved in a volume of 97:3 v/v acetone-DMSO to obtain 12× stock solutions. […] The concentrated stock solutions were added to the spray solutions so that the final acetone and DMSO concentrations were 16.2% and 0.5%, respectively. Spray solutions were diluted to the appropriate final concentrations with the addition of 10 mL of an aqueous mixture of 1.5% (v/v) Agri-dex crop oil concentrate. The final spray solutions contained 1.25% (v/v) Agri-dex crop oil concentrate. Compound requirements are based upon a 12 mL application volume at a rate of 187 L/ha. Formulated compounds were applied to the plant material with an overhead Mandel track sprayer equipped with […] nozzles calibrated to deliver 187 L/ha over an application area of 0.503 square meters (m^2) at a spray height of 18 inches (43 cm) above average plant canopy height. Control plants were sprayed in the same manner with the solvent blank. The treated plants and control plants were placed in a greenhouse as described above and watered by sub-irrigation to prevent wash-off of the test compounds. After 20-22 days, the condition of the test plants, compared with that of the untreated plants, was determined visually and scored on a scale of 0 to 100 percent where 0 corresponds to no injury and 100 corresponds to complete kill and are presented as indicated in Table 4. By applying the well-accepted probit analysis as described by J. Berkson in Journal of the American Statistical Society, 48, 565 (1953) and by D. Finney in “Probit Analysis” Cambridge University Press (1952), herbicidal injury of a specific compound at various rates can be used to calculate GR20, GR50, GR80 and GR90 values, which are defined as growth reduction factors that correspond to the effective dose of herbicide required to provide plant growth reduction (GR) of 20 percent, 50 percent, 80 percent and 90 percent, respectively. Probit analysis was applied to data collected from multiple dose rates of individual compounds utilizing the procedures explained in the following examples. The data for some of the dose rates and analysis of all of the dose rates are captured in the following tables.

[1] = BRAPP (broadleaf signalgrass, Brachiaria platyphylla), read-out: Visual Growth Reduction (%) 21 Days After Application BRAPP
[2] = CYPDI (small-flower flatsedge, Cyperus difformis), read-out: Visual Growth Reduction (%) 21 Days After Application CYPDI
[3] = CYPES (yellow nutsedge, Cyperus esculentus), read-out: Visual Growth Reduction (%) 21 Days After Application CYPES
[4] = CYPIR (rice flatsedge, Cyperus iria), read-out: Visual Growth Reduction (%) 21 Days After Application CYPIR
[5] = DIGSA (large crabgrass, Digitaria sanguinalis), read-out: Visual Growth Reduction (%) 21 Days After Application DIGSA
[6] = ECHCG (barnyardgrass, Echinochloa crus-galli), read-out: Visual Growth Reduction (%) 21 Days After Application ECHCG
[7] = ECHCO (junglerice, Echinochloa colonum), read-out: Visual Growth Reduction (%) 21 Days After Application ECHCO
[8] = LEFCH (Chinese sprangletop, Leptochloa chinensis), read-out: Visual Growth Reduction (%) 21 Days After Application LEFCH
[9] = ORYSJ (Oryza sativa, rice crop), read-out: Visual Growth Reduction (%) 21 Days After Application ORYSJ
[10] = ORYSK (Oryza sativa, rice crop), read-out: Visual Growth Reduction (%) 21 Days After Application ORYSK
[11] = SCPJU (Japanese bulrush, Schoenoplectus juncoides Roxb.), read-out: Visual Growth Reduction (%) 21 Days After Application SCPJU
[12] = SEBEX (hemp sesbania, Sesbania exaltata), read-out: Visual Growth Reduction (%) 21 Days After Application SEBEX

For `COC(=O)c1nc(-c2ccc3c(c2F)OC(F)(F)O3)c(F)c(N)c1Cl` [Compound 10], the “GR50 BRAPP” value (BRAPP (Brachiaria platyphylla), probit analysis, dose for 50 percent growth reduction) was 7 g ai/ha, the “GR80 BRAPP” value (BRAPP (Brachiaria platyphylla), probit analysis, dose for 80 percent growth reduction) was 16 g ai/ha and the “GR90 BRAPP” value (BRAPP (Brachiaria platyphylla), probit analysis, dose for 90 percent growth reduction) was 24 g ai/ha. The “GR50 CYPDI” value (CYPDI (Cyperus difformis), probit analysis, dose for 50 percent growth reduction) was 4 g ai/ha, the “GR80 CYPDI” value (CYPDI (Cyperus difformis), probit analysis, dose for 80 percent growth reduction) was 8 g ai/ha and the “GR90 CYPDI” value (CYPDI (Cyperus difformis), probit analysis, dose for 90 percent growth reduction) was 10 g ai/ha. The “GR50 CYPES” value (CYPES (Cyperus esculentus), probit analysis, dose for 50 percent growth reduction) was <18 g ai/ha, the “GR80 CYPES” value (CYPES (Cyperus esculentus), probit analysis, dose for 80 percent growth reduction) was <18 g ai/ha and the “GR90 CYPES” value (CYPES (Cyperus esculentus), probit analysis, dose for 90 percent growth reduction) was <18 g ai/ha. The “GR50 CYPIR” value (CYPIR (Cyperus iria), probit analysis, dose for 50 percent growth reduction) was 6 g ai/ha, the “GR80 CYPIR” value (CYPIR (Cyperus iria), probit analysis, dose for 80 percent growth reduction) was 10 g ai/ha and the “GR90 CYPIR” value (CYPIR (Cyperus iria), probit analysis, dose for 90 percent growth reduction) was 13 g ai/ha. The “GR50 DIGSA” value (DIGSA (Digitaria sanguinalis), probit analysis, dose for 50 percent growth reduction) was 1 g ai/ha, the “GR80 DIGSA” value (DIGSA (Digitaria sanguinalis), probit analysis, dose for 80 percent growth reduction) was 8 g ai/ha and the “GR90 DIGSA” value (DIGSA (Digitaria sanguinalis), probit analysis, dose for 90 percent growth reduction) was 21 g ai/ha. For the same compound, the “GR50 ECHCG” value (ECHCG (Echinochloa crus-galli), probit analysis, dose for 50 percent growth reduction) was 10 g ai/ha, the “GR80 ECHCG” value (ECHCG (Echinochloa crus-galli), probit analysis, dose for 80 percent growth reduction) was 14 g ai/ha and the “GR90 ECHCG” value (ECHCG (Echinochloa crus-galli), probit analysis, dose for 90 percent growth reduction) was 16 g ai/ha. The “GR50 ECHCO” value (ECHCO (Echinochloa colonum), probit analysis, dose for 50 percent growth reduction) was 6 g ai/ha, the “GR80 ECHCO” value (ECHCO (Echinochloa colonum), probit analysis, dose for 80 percent growth reduction) was 14 g ai/ha and the “GR90 ECHCO” value (ECHCO (Echinochloa colonum), probit analysis, dose for 90 percent growth reduction) was 21 g ai/ha. The “GR50 LEFCH” value (LEFCH (Leptochloa chinensis), probit analysis, dose for 50 percent growth reduction) was 12 g ai/ha, the “GR80 LEFCH” value (LEFCH (Leptochloa chinensis), probit analysis, dose for 80 percent growth reduction) was 20 g ai/ha and the “GR90 LEFCH” value (LEFCH (Leptochloa chinensis), probit analysis, dose for 90 percent growth reduction) was 27 g ai/ha. For the same compound, the “GR20 ORYSJ” value (ORYSJ (Oryza sativa, rice crop), probit analysis, dose for 20 percent growth reduction) was 14 g ai/ha, the “GR20 ORYSK” value (ORYSK (Oryza sativa, rice crop), probit analysis, dose for 20 percent growth reduction) was 20 g ai/ha and the “GR50 SCPJU” value (SCPJU (Schoenoplectus juncoides Roxb.), probit analysis, dose for 50 percent growth reduction) was 0.0002 g ai/ha. For the same compound, the “GR80 SCPJU” value (SCPJU (Schoenoplectus juncoides Roxb.), probit analysis, dose for 80 percent growth reduction) was 0.0207 g ai/ha, the “GR90 SCPJU” value (SCPJU (Schoenoplectus juncoides Roxb.), probit analysis, dose for 90 percent growth reduction) was 0.268 g ai/ha and the “GR50 SEBEX” value (SEBEX (Sesbania exaltata), probit analysis, dose for 50 percent growth reduction) was 3 g ai/ha. For the same compound, the “GR80 SEBEX” value (SEBEX (Sesbania exaltata), probit analysis, dose for 80 percent growth reduction) was 8 g ai/ha, the “GR90 SEBEX” value (SEBEX (Sesbania exaltata), probit analysis, dose for 90 percent growth reduction) was 13 g ai/ha and the pest or weed control at 17.5 g/ha [1] was 85 to 94%. It also gave a pest or weed control at 35 g/ha [1] of 95 to 100%, a pest or weed control at 70 g/ha [1] of 95 to 100% and a pest or weed control at 17.5 g/ha [2] of 95 to 100%. For the same compound, the pest or weed control at 35 g/ha [2] was 95 to 100%, the pest or weed control at 70 g/ha [2] was 95 to 100% and the pest or weed control at 17.5 g/ha [3] was 95 to 100%. It also gave a pest or weed control at 35 g/ha [3] of 95 to 100%, a pest or weed control at 70 g/ha [3] of 95 to 100% and a pest or weed control at 17.5 g/ha [4] of 95 to 100%. It also gave a pest or weed control at 35 g/ha [4] of 95 to 100%, a pest or weed control at 70 g/ha [4] of 95 to 100% and a pest or weed control at 17.5 g/ha [5] of 95 to 100%. The pest or weed control at 35 g/ha [5] was 85 to 94%, the pest or weed control at 70 g/ha [5] was 95 to 100% and the pest or weed control at 17.5 g/ha [6] was 95 to 100%. It also gave a pest or weed control at 35 g/ha [6] of 95 to 100%, a pest or weed control at 70 g/ha [6] of 95 to 100% and a pest or weed control at 17.5 g/ha [7] of 85 to 94%. For the same compound, the pest or weed control at 35 g/ha [7] was 95 to 100%, the pest or weed control at 70 g/ha [7] was 95 to 100% and the pest or weed control at 17.5 g/ha [8] was 60 to 74%. For the same compound, the pest or weed control at 35 g/ha [8] was 95 to 100%, the pest or weed control at 70 g/ha [8] was 95 to 100% and the pest or weed control at 17.5 g/ha [9] was 0 to 29%. The pest or weed control at 35 g/ha [9] was 60 to 74%, the pest or weed control at 70 g/ha [9] was 75 to 84% and the pest or weed control at 17.5 g/ha [10] was 0 to 29%. The pest or weed control at 35 g/ha [10] was 45 to 59%, the pest or weed control at 70 g/ha [10] was 75 to 84% and the pest or weed control at 17.5 g/ha [11] was 95 to 100%. It also gave a pest or weed control at 35 g/ha [11] of 95 to 100%, a pest or weed control at 70 g/ha [11] of 95 to 100% and a pest or weed control at 17.5 g/ha [12] of 95 to 100%. The pest or weed control at 35 g/ha [12] was 95 to 100% and the pest or weed control at 70 g/ha [12] was 95 to 100%.
